IC50 data for seven compounds are collected here from patent publication US8822455B2, “Fused aminodihydrothiazine derivatives” (Eisai R&D Management Co., Ltd., priority 2011, dated 2014).

The experiment relates to Aβ42. Briefly: In vitro cellular assay (Aβ42): quantification of Aβ peptide in culture of neurons from rat fetus brain (ELISA). The format is cell-based. The settings on record: Primary cortical neuron, 72 h, rat primary cortical neurons (embryonic day 18 Wistar), 3 days after addition of compound, read-out: Cell IC50. How it is done:
In vitro Cellular Assay (Aβ42):
Quantification of AβPeptide in Culture of Neurons from Rat Fetus Brain
(1) Rat Primary Neuronal Culture
Primary neuronal cultures were prepared from the cerebral cortex of embryonic day 18 Wistar rats (Charles River, UK). Specifically, the embryos were aseptically removed from pregnant rats under ether anesthesia. The brain was isolated from the embryo and immersed in HBSS (Sigma Aldrich #H9269) containing 10 mM HEPES (Gibco #15630-056). The cerebral cortex was collected from the isolated brain under a stereoscopic microscope. The cerebral cortex fragments collected were enzymatically treated in an enzyme solution containing 0.05% trypsin-EDTA solution (GIBCO, #25300) at 37° C. for 20 minutes to disperse the cells. The cells were then washed twice and then gently resuspended in Neurobasal medium (Gibco #21103) supplemented with 2% B27 supplement (GIBCO #17504-044), 0.5 mM L-glutamine (GIBCO #25030), 1×N2 (GIBCO #17502-048), 100 ug/ml Pen/Strep (GIBCO 15140-122) and 5% heat inactivated FCS (PAA #A15-701). The cell dispersion was filtered through a 40-μm nylon mesh (BD Falcon #352340) to remove the remaining cell mass, and thus a neuronal cell suspension was obtained. The neuronal cell suspension was diluted with the medium above and then plated in a volume of 100 μL/well at an initial cell density of 3.25×10^5 cells/ml in poly-D-lysine coated 96-well culture plate (Greiner #655940). The plated cells were cultured in the culture plate at 37° C. in 5% CO2-95% air for 24 hrs. The total amount of the medium was replaced with ‘assay Neurobasal medium’ (as above excluding heat inactivated FCS), and then the cells were cultured for a further five days.
The drug was added to the culture plate on Day 6 of culture as follows. 8 point compound serial dilutions were generated in DMSO at a concentration of ×1000 that of the final assay concentration (FAC). Compound solutions were then prepared by adding 999 ul of ‘Assay Neurobasal media’ (as described in above section) to 1 ul of DMSO compound stock. The total amount of the medium was removed from each of the cell plate wells, and 200 μL/well of compound solution was added. The final DMSO concentration was 0.1%.
The cells were cultured for either 1 or 3 days after addition of the compound for ABx-40 and ABx-42 assays respectively. 150 μl of sample medium was collected and used as the ELISA sample.
Human/Rat β Amyloid (42) ELISA Kit Wako (#290-62601) and Human/Rat β Amyloid (40) ELISA Kit Wako (#294-62501) from Wako Pure Chemical Industries, Ltd. were used for Aβ ELISA Aβ ELISA was carried out according to the protocols recommended by the manufacturers, described in the documents accompanying the kits. The results were shown as percentage of the control groups and IC50 values for each compound were determined using four parameter logistic fit model using the XLFIT5 software package (IDBS).
(In general: An ELISA detects its analyte on a solid surface through an enzyme-linked reagent.)

For `COc1cccc(-c2ccc(F)c([C@]34CO[C@H](C)[C@H]3CSC(N)=N4)c2)n1` [Example 24, (4aS,5R,7aS)-7a-(2-fluoro-5-(6-methoxypyridin-2-yl)phenyl)-5-methyl-4a,5,7,7a-tetrahydro-4H-furo[3,4-d][1,3]thiazin-2-amine], the half-maximal inhibitory concentration (IC50) (in general, the concentration needed to halve the response being measured) is > 1000 nM.

`C[C@H]1OC[C@]2(c3cc(-c4cccc(=O)[nH]4)ccc3F)N=C(N)SC[C@H]12` [Example 25, 6-(3-((4aS,5R,7aS)-2-amino-5-methyl-4a,5,7,7a-tetrahydro-4H-furo[3,4-d][1,3]thiazin-7a-yl)-4-fluorophenyl)pyridin-2(1H)-one]: the concentration for half-maximal inhibition (IC50) came to 342 nM.

In the case of `C[C@H]1OC[C@]2(c3cc(-c4cncc(OC(F)F)c4)ccc3F)N=C(N)SC[C@H]12` [Example 26], the half-inhibitory concentration (IC50) was 64 nM.

As to `NC1=N[C@@]2(c3cc(-c4cncnc4)c(F)cc3F)CO[C@H](CF)[C@H]2CS1` [Example 27, (4aS,5S,7aS)-7a-(2,4-Difluoro-5-(pyrimidin-5-yl)phenyl)-5-(fluoromethyl)-4a,5,7,7a-tetrahydro-4H-furo[3,4-d][1,3]thiazin-2-amine], the IC50 was determined as 59 nM.

In the case of `NC1=N[C@@]2(c3cc(-c4cccnc4F)c(F)cc3F)CO[C@H](CF)[C@H]2CS1` [Example 28], the 50% inhibitory concentration (IC50) was determined as 46 nM.

On to `COc1cncc(-c2cc([C@]34CO[C@H](CF)[C@H]3CSC(N)=N4)c(F)cc2F)c1` [Example 29, (4aS,5S,7aS)-7a-(2,4-difluoro-5-(5-methoxypyridin-3-yl)phenyl)-5-(fluoromethyl)-4a,5,7,7a-tetrahydro-4H-furo[3,4-d][1,3]thiazin-2-amine], for which the IC50 came out at 15 nM.

With `NC1=N[C@@]2(c3cc(-c4ccc(F)nc4)c(F)cc3F)CO[C@H](CF)[C@H]2CS1` [Example 30, (4aS,5S,7aS)-7a-(2,4-difluoro-5-(6-fluoropyridin-3-yl)phenyl)-5-(fluoromethyl)-4a,5,7,7a-tetrahydro-4H-furo[3,4-d][1,3]thiazin-2-amine], the IC50 came out at 223 nM.
